The text below walks through data of US20240067931A1, “METHODS AND COMPOSITIONS FOR SMALL MOLECULE BASED PANCREATIC BETA CELL INDUCTION” (Trailhead Biosystems Inc., priority 2022, published 2024).

Ends that are not written are not given here.

What all share (format): cell-based, human
In test [1] the test system is FOXA2. Put plainly: HD-DoE perturbation matrix on iPSC line CR01, optimization of FOXA2 activation (MODDE modelling). The source says: FIG. 3 Optimization of FOXA2 from the iPSC-line CR01. A culture of the iPSC cell line Cr01 was exposed to an HD-DoE perturbation matrix composed of compounds regulating the BMP, retinoid, TGF-β and FGF pathways. Pathways previously shown to be involved in the differentiation of dorsal foregut endoderm. MODDE software was used to predict the optimal condition for maximizing FOXA2 activation. Predicted factor additives for this optimization and the relative expression under these conditions for all genes measured are shown.
(§1) To assay the efficacy of a potentially clinical grade iPSC line the NCRM1 cell line was chosen. An HD-DoE based optimization was used to validate the HNF1b and FOXA2 optimizers for this cell line. The HD-DOE method was applied with the intent to find conditions for induction of endoderm-expressed genes, directly from the pluripotent stem cell state. This example utilizes a method previously described by Bukys et al. (2020) Iscience 23:101346. The method employs computerized design geometries to simultaneously test multiple process inputs and offers mathematical modeling of a deep effector/response space. The method allows for finding combinatorial signaling inputs that control a complex process, such as dauring cell differentiation. It allows testing of multiple plausible critical process parameters, as such parameters impact output responses, such as gene expression. Because gene expression provides hallmark features of the phenotype of, for example, a human cell, the method can be applied to identify, and understand, which signaling pathways control cell fate.
(§2) To develop a cell culture recipe for each stage, the impact of agonists and antagonists of multiple signaling pathways (herein called effectors) on the expression of pre-selected genes was tested and modeled. The impact of each effector on gene expression level is defined by a parameter called factor contribution that is calculated for each effector during the modeling. These effectors are small molecules or proteins that are commonly used during stepwise differentiation of stem cells to specific fates. Choice of the effectors were based on current literature on differentiation of stem cells to endoderm progenitors.
(§3) In both optimizations, it was shown that BMP pathway inhibition was the most crucial component of the optimization with factor contribution factors of 31.26 and 31.11 for LDN193189 in both the optimization of HNF1b (FIG. 2) and FOXA2 (FIG. 3), respectively. While MEK pathway inhibition with PD0325901 was critical for both HNF1b and FOXA2 optimization (factor contributions of 15.01 and 29.01, respectively), FOXA2 activation was more dependent on MEK inhibition. The other two pathways that were determined to be crucial for controlling DFE activation were retinoid signaling and TGF-β pathway inhibition. These two pathways had differential effects on FOXA2 and HNF1b.

The subject of another test is HNF1b. Put plainly: HD-DoE perturbation matrix on iPSC line CR01, optimization of HNF1b activation (MODDE modelling).
Source text: FIG. 2 Optimization of HNF1B from the iPSC-line CR01. A culture of the iPSC cell line Cr01 was exposed to an HD-DoE perturbation matrix composed of compounds regulating the BMP, retinoid, TGF-β and FGF pathways. Pathways previously shown to be involved in the differentiation of dorsal foregut endoderm were utilized in this analysis. MODDE software was used to predict the optimal condition for maximizing HNF1b activation. Predicted factor additives for this optimization and the relative expression under these conditions for the genes measured are shown.
as §1, §2, §3

The subject of the next test is INS. Put plainly: HD-DoE screening for optimal de novo beta cell induction (stage 3 cultures, 3 day perturbation), INS induction. Here is the method: FIG. 18 HD-DoE screening for optimal de novo beta cell induction. Culture of the iPSC cell line CR01 were differentiated to a DFE state for 3 days. These cultures were then incubated in the presence of stage 2 media for an additional 3 days. These cultures were then incubated for an additional 5 days in the presence of GSI-XX and A8301 followed by a 3 day incubation in the presence of a perturbation matrix composed of the compounds indicated in the different panels. This was performed 3 separate times (once for each of the 3 panels). These HD-DoE experiments were then analyzed using MODDE software for maximal induction of insulin. The predicted results are shown.
FIG. 20 HD-DoE screening for optimal de novo beta cell induction. Cultures of the iPSC cell line CR01 were differentiated to a DFE state for 3 days. These cultures were then incubated in the presence of stage 2 media for an additional 3 days. These cultures were then incubated for an additional 5 days in the presence of GSI-XX and A8301 followed by a 3 day incubation in the presence of a perturbation matrix composed of the compounds indicated in the different panels. This was performed 4 separate times (once for each of the 4 panels). These HD-DoE experiments were then analyzed using MODDE software for the maximal induction of Insulin. The predicted results are shown.
(§4) FIGS. 22-25. Dynamic profiling of endocrine sub-type regulation. One of the HD-DoE experiments shown in Example 19 was analyzed using MODDE software and dynamic profiling of the endocrine products GCG, SST and INS are shown.
To define factors contributing to the activation of INS, a series of HD-DoE perturbations were performed using factors chosen to target different aspects of beta cell biology.
To define factors contributing to the activation of INS, a series HD-DoE perturbations were performed using factors chosen to target different aspects of beta cell biology.

Test [2] has as its system FOXA2. Put plainly: Immunohistochemical staining of iPSC (CR01) cultures after three days in additive combinations. As to conditions: added to RA and LDN, FIG. 9. The source says:
FIG. 9 Achieving optimal FOXA2 expression. IPSC (CR01) cultures were exposed to media containing different combination of the additive retinoic acid, LDN193189, A8301 and/or PD0325 as indicated on the left side of the stainings. After three days, cultures were fixed and subjected to immunohistochemical staining for the protein antigens of FOXA2 and HNF1b.

For a further test, the system named is PDX1. Kind of test: HD-DoE perturbation matrix on DFE culture, modelling for maximal PDX1 induction. From the text:
FIG. 11 Modelling for maximal PDX1 induction. Cultures of the iPSC cell line Cr01 was differentiated to a DFE state and then subjected to an HD-DoE perturbation matrix composed of the compounds indicated in the figure. MODDE software was used to predict the optimal condition for maximizing PDX1 activation. Predicted factor additives for this optimization and the relative expression under these conditions for the genes measured are shown.
FIG. 12 Coefficient plots show main effectors for pancreatic progenitor generation from a DFE precursor. Coefficients for the HD-DoE design shown in Example 9 are shown for PDX1 and PTF1A. The co-expression of these two genes is indicative of a pancreatic field.
To determine the best way for inducing a pancreatic fate from a DFE progenitor, a subsequent HD-DoE analysis was performed. Exposing a DFE culture to a perturbation matrix composed of all previously identified effectors shown to have a positive effect on PDX1 activation was used to define optimal conditions for PDX1 induction.

The test system of test [3] is GCG, SST, PDX1, PAX4, MAFA and NKX2.2. Kind of test: HD-DoE stage 3 screening, heat map and dynamic profiling of endocrine and beta cell genes. As to conditions: heat maps FIG. 19 and FIG. 21.
Source text: FIG. 19 Heat map showing descending factor contributions for the induction of INS. The three HD-DoE experiments shown in Example 17 were used for modeling the maximal expression of several other genes, including GCG, SST, PDX1, PAX4, MAFA and NKX2.2, which are indicative of endocrine cell types with a focus on pancreatic beta cells as indicated at the top of the heat map. The relative factor contributions for the activation of these different genes were then used to generate a secondary heat map representative of the gene induction logic and then ranked according to the compound's ability to induce INS. Dark blue colors indicate a high inductive capacity, while dark red colors indicative of a highly repressive capacity for activation of the genes are shown.
FIG. 21 Heat map showing descending factor contributions for the induction of INS. The four HD-DoE experiments shown in Example 19 were used for modeling the maximal expression of several other genes. These genes were GCG, SST, PDX1, PAX4, MAFA and NKX2.2. These genes are all indicative of endocrine cell types with a focus on the beta cell as indicated at the top of the heatmap. The relative factor contribution for the activation of these different genes were then used to generate a secondary heat map representative of these genes induction logic and then ranked order according to the compounds ability to induce INS. Dark blue indicates high inductive capacity, while dark red is indicative of a highly repressive effect for the activation of the genes shown.
as §4
To ascertain which factors could potentially favor the beta cell over other endocrine cell types, optimizers for markers of the other endocrine cell types and beta cell specific markers were compared. The relative factor contribution from the different optimizers were compared.
Optimizers for the main pancreatic endocrine hormones and beta cell-specific transcription factors were generated to compare their contribution factors for this series of HD-DoE. Compounds that could selectively favor the differentiation of the beta cell over that of the alpha and delta cells were identified in this manner.

The next test concerns de novo beta cells. Put plainly: Immunohistochemical validation of de novo beta cells, day 16 culture (PDX1, C-peptide). To be noted: added to stage 3 media, FIG. 26. As to the method: FIG. 26 Immunohistochemical validation of the generation of the de novo beta cells. Cultures of the iPSC cell line CR01 was differentiated to a DFE state for 3 days. These cultures were then incubated in the presence of stage 2 media for an additional 3 days. These cultures were then incubated for an additional 10 days in the presence of quercetin, GSI-XX and A8301. The cultures were then fixed using formalin and stained for antibodies that recognize the proteins PDX1 and CPEP.
C-peptide staining was performed to distinguish between de novo generation of beta cells and the possible absorption of insulin from the culture media.

Test [4] relates to iPSC derivatives (insulin secreting cells). Put plainly: GSIS assay of bioreactor produced iPSC derivatives with cAMP agonists. To be noted: FIG. 39. As to the method:
FIG. 39. Functionality of bioreactor produced insulin secreting cells occurs through cAMP agonism.
A glucose stimulated insulin secretion assay was performed to evaluate the functional maturity of the de novo beta cells generated. Assay samples had growth media removed and were washed once with PBS to remove any trace of media that may have been previously conditioned with secreted C-PEP. All samples were then incubated in the presence of basal media at 37 degrees Celsius for 15 minutes. Basal media consisted of RPMI containing 3 mM glucose. This media was then changed to either media supplemented with 17.5 mM glucose or 30 mM KCl and incubated for an additional 15 minutes.
Fully mature beta cells respond to incretins such as GLP1 through a cAMP mediated response. The iPSC derivatives are non-responsive to both GLP1 or a commonly used agonist of the GLP1 pathway EX4. It was shown that the receptor for these incretins (GLPR1) had very low expression in the iPSC-derivatives (FIG. 40). The rate of insulin secretion was also directly linked to the rate of mitochondrial respiration, as fully mature beta cells lack LDHA expression, making them only capable of metabolizing glucose through mitochondria respiration.

In another test the test system is INS (beta cell marker). Put plainly: HD-DoE on DFE culture, dynamic profiling of endocrine sub-type markers: INS. To be noted: PDX1 optimizer, dynamic profiling FIG. 14. From the text: FIG. 14 Dynamic profiling exploring endocrine cell sub-types. IPSC cultures were differentiated to DFE cultures and then subjected a HD-DoE matrix as outlined in Example 10. MODDE software was used to display the dynamic profiles of GCG, INS and SST, which provide a representable characterization of the different pancreatic endocrine subtypes corresponding to alpha, beta, and delta cells, respectively.

As for `Cc1cccc(-c2nn(C(=S)Nc3ccccc3)cc2-c2ccnc3ccccc23)n1` [A8301], in the test with FOXA2 [1] (iPSC line CR01, HD-DoE, FIG. 3), the “correlation with FOXA2 activation” value is recorded as “positive correlation” and the “factor contribution, optimization of FOXA2” value came out at 17.72. Besides, in the test on HNF1b (iPSC line CR01, HD-DoE, FIG. 2), the “correlation with HNF1b activation” value was “negative correlation” and the “factor contribution, optimization of HNF1b” value turned out to be 3.02. The “effect on INS induction” value in the test with INS (heat map FIG. 21, dynamic profiling FIGS. 22-25) was “positive effect on INS induction, though with far less contribution”. The “FOXA2 activation (immunohistochemical analysis)” value in the test with FOXA2 [2] is “increased FOXA2 activation over RA and LDN alone”.

As for `c1ccc2c(-c3cnn4cc(-c5ccc(N6CCNCC6)cc5)cnc34)ccnc2c1` [LDN193189], the “effect on FOXA2 expression” value with FOXA2 [1] (dynamic profiling, FIG. 5) is “crucial”. Moreover, the “factor contribution, optimization of FOXA2” value in the test with FOXA2 [1] (iPSC line CR01, HD-DoE, FIG. 3) turned out to be 31.11. In the test on HNF1b (dynamic profiling, FIG. 5), the “effect on HNF1b expression” value is on record as “crucial”. Further, the “factor contribution, optimization of HNF1b” value with HNF1b (iPSC line CR01, HD-DoE, FIG. 2) is recorded as 31.26.

For `O=C(NOC[C@H](O)CO)c1ccc(F)c(F)c1Nc1ccc(I)cc1F` [PD0325901], the “factor contribution, optimization of FOXA2” value in the test with FOXA2 [1] (iPSC line CR01, HD-DoE, FIG. 3) is given as 29.01. The “factor contribution, optimization of HNF1b” value in the test with HNF1b (iPSC line CR01, HD-DoE, FIG. 2) was 15.01. Also, in the test with FOXA2 [2], the “FOXA2 activation (immunohistochemical analysis)” value was “increased FOXA2 activation over RA and LDN alone”. In addition, the “activation of the pancreatic field (PTF1A and PDX1), coefficient plots” value in the test with PDX1 (from DFE, FIG. 12) is on record as “most critical to control”.

In the case of `O=c1c(O)c(-c2ccc(O)c(O)c2)oc2cc(O)cc(O)c12` [quercetin], the “effect on beta cell specific transcription factors / all genes optimized” value in test [3] is given as “beneficial for all genes optimized”. The “contribution factor, activation of INS” value with INS (Example 17, three HD-DoE panels, FIG. 18) stood at 15.6. In addition, the “endocrine conversion, de novo beta cell generation (immunohistochemical analysis)” value in the test on de novo beta cells was “increased overall endocrine conversion”.

With “GLP1: incretin, cAMP agonist (HAEGTFTSDVSSYLEGQAAKEFIAWLVKGR; ends and bridges not checked; UniProt P01275 98-127, looked up)”, the “increase in insulin secretion in GSIS assay” value in test [4] is listed as “did not occur”.

For `Cc1c(C)c(NCC(=O)N(C)C2CCN(Cc3ccc(C(N)=O)cc3)CC2)c(C)c(C)c1N` [SUN11602], the “effect on INS activation” value with INS (beta cell marker) is “slightly negative effect”. Also, in the test with PDX1 (DFE culture, HD-DoE, FIG. 11), the “factor contribution, PDX1 activation” value was determined as 4.7.
